Key:
[1] = target: cGMP-inhibited 3',5'-cyclic phosphodiesterase 3A (Homo sapiens, UniProt Q14432); type: functional
[2] = target: T1, B2 bradykinin receptor (Homo sapiens, UniProt P30411)
T1 sequence (P30411 whole entry): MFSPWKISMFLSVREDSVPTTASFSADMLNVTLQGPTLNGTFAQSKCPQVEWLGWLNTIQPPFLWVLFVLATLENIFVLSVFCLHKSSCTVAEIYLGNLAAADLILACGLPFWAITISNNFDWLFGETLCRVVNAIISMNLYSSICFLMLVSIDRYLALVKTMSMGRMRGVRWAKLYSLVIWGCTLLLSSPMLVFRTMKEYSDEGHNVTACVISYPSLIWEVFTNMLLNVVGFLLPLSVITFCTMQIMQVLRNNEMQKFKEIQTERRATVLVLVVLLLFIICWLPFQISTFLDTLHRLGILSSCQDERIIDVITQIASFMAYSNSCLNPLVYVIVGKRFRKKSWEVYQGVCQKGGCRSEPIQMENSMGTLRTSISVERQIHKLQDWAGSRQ

[3] = target: Histamine H2 receptor (Homo sapiens, UniProt P25021); type: functional, cell-based
[4] = target: T2, Amine oxidase [flavin-containing] A (Homo sapiens, UniProt P21397); type: functional
T2 sequence (P21397 whole entry): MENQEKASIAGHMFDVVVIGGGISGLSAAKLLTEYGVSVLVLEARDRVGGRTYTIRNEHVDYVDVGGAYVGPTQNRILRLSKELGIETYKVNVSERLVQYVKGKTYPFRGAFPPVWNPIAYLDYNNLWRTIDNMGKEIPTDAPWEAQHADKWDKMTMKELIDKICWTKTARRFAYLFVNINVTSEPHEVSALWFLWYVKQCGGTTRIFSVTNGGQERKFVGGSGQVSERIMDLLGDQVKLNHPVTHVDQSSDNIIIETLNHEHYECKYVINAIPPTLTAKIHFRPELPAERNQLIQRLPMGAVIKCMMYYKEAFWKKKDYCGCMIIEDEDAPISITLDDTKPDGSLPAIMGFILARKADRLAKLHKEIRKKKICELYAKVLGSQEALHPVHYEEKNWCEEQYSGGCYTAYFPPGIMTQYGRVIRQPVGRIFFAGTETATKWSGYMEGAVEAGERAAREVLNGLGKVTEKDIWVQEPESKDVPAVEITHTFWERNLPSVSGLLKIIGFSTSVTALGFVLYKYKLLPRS

[5] = target: T3, Cholecystokinin receptor type A (Homo sapiens, UniProt P32238)
T3 sequence (P32238 whole entry): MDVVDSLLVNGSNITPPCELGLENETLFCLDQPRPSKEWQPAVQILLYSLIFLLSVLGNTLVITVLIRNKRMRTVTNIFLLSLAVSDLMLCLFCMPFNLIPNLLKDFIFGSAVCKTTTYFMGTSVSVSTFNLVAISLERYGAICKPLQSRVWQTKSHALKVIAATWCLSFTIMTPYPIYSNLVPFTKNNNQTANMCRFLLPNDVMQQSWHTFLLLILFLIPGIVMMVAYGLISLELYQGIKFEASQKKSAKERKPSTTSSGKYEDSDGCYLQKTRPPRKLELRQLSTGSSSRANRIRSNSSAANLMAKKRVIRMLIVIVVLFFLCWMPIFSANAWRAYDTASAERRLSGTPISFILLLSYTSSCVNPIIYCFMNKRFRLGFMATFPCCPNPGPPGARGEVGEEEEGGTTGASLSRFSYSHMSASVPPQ

[6] = target: Kappa-type opioid receptor (Homo sapiens, UniProt P41145)
[7] = target: Beta-1 adrenergic receptor (Homo sapiens, UniProt P08588); type: functional
[8] = target: T4, Neuropeptide Y receptor type 1 (Homo sapiens, UniProt P25929)
T4 sequence (P25929 whole entry): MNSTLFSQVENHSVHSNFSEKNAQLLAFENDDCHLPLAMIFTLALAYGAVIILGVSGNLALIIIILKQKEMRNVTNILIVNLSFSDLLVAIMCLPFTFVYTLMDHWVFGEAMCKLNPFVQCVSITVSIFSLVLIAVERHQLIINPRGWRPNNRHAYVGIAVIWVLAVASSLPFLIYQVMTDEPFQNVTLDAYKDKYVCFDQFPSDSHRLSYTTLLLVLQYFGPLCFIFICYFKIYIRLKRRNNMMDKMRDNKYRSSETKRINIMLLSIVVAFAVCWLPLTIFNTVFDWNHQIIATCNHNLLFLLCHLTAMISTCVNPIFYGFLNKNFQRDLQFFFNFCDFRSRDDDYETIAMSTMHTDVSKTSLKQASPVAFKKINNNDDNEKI

[9] = target: T5, 5-hydroxytryptamine receptor 3A (Homo sapiens, UniProt P46098); type: functional
T5 sequence (P46098 whole entry): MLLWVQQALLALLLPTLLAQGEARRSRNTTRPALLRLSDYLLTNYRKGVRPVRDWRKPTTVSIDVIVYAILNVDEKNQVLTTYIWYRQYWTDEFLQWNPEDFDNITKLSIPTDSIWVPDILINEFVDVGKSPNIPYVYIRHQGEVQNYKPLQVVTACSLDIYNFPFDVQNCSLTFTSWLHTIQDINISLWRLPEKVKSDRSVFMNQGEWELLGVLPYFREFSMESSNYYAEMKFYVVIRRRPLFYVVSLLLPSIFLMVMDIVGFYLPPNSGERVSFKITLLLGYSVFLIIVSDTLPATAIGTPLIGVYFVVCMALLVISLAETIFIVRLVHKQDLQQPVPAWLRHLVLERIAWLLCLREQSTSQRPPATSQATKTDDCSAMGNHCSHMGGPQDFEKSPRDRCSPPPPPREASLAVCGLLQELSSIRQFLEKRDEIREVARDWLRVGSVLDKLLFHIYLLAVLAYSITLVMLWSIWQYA

[10] = target: Vasopressin V2 receptor (Homo sapiens, UniProt P30518)
[11] = target: Neuronal acetylcholine receptor subunit alpha-4 (Homo sapiens, UniProt P43681)
Also: assay procedure not described here.

Sequence of Beta-1 adrenergic receptor (P08588 whole entry): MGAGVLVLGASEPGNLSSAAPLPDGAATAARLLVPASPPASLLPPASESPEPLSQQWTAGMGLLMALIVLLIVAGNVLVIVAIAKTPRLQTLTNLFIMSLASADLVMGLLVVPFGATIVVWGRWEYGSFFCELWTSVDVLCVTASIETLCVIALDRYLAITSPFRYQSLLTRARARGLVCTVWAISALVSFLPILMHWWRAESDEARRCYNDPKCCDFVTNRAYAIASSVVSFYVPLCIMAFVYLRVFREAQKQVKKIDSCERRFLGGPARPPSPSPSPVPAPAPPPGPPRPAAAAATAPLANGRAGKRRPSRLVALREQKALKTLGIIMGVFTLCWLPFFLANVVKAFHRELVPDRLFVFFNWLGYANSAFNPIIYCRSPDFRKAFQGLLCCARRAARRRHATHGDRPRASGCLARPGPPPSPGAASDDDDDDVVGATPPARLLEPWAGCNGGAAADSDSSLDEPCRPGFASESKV
Sequence of cGMP-inhibited 3',5'-cyclic phosphodiesterase 3A (Q14432 whole entry): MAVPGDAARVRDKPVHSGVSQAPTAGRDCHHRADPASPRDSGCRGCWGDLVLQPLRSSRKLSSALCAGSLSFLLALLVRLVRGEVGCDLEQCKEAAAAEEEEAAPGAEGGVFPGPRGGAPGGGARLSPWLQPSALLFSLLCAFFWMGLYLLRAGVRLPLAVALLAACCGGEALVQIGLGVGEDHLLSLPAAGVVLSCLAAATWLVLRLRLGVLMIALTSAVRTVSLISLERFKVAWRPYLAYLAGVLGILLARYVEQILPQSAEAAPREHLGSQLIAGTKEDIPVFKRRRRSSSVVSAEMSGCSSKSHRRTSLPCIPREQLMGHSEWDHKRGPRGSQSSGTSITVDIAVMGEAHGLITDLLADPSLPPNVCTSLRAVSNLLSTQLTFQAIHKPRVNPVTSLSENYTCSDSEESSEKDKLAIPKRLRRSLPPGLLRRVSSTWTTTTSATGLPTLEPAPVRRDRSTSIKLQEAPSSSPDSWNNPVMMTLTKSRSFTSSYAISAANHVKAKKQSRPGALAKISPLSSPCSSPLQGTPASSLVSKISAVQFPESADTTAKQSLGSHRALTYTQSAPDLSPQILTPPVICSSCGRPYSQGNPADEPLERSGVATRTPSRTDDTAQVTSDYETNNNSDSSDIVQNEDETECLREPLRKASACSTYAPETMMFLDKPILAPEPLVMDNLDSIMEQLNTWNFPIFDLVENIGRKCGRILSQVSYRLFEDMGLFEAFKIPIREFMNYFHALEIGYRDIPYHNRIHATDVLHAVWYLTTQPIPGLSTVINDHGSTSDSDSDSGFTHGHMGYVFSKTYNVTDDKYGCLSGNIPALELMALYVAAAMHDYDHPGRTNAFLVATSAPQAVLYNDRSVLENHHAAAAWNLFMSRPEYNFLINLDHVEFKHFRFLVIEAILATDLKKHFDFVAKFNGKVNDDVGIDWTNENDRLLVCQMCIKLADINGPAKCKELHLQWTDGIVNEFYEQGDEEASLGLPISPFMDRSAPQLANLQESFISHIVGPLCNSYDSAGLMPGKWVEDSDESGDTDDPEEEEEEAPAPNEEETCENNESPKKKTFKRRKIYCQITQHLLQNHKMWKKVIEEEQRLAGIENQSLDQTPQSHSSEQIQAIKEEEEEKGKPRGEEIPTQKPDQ
Sequence of Kappa-type opioid receptor (P41145 whole entry): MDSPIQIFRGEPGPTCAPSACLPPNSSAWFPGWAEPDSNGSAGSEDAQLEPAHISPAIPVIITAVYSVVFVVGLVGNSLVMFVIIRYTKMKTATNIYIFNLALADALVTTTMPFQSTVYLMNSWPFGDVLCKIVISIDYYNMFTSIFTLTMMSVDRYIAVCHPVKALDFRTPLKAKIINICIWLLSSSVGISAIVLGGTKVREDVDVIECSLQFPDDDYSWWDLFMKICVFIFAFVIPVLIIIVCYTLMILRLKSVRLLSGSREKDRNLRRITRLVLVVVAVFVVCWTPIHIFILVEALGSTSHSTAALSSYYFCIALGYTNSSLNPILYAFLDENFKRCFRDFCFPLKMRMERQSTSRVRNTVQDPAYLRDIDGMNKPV
Sequence of Histamine H2 receptor (P25021 whole entry): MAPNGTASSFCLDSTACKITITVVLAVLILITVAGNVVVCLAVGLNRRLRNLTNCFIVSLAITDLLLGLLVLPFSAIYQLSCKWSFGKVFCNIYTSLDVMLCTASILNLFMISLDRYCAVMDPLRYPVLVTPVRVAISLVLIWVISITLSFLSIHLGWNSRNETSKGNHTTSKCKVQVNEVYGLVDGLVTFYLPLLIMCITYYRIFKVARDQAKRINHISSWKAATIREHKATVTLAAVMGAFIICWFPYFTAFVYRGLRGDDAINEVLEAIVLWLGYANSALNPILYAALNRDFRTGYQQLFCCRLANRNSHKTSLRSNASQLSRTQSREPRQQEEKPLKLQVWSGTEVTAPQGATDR
Sequence of Neuronal acetylcholine receptor subunit alpha-4 (P43681 whole entry): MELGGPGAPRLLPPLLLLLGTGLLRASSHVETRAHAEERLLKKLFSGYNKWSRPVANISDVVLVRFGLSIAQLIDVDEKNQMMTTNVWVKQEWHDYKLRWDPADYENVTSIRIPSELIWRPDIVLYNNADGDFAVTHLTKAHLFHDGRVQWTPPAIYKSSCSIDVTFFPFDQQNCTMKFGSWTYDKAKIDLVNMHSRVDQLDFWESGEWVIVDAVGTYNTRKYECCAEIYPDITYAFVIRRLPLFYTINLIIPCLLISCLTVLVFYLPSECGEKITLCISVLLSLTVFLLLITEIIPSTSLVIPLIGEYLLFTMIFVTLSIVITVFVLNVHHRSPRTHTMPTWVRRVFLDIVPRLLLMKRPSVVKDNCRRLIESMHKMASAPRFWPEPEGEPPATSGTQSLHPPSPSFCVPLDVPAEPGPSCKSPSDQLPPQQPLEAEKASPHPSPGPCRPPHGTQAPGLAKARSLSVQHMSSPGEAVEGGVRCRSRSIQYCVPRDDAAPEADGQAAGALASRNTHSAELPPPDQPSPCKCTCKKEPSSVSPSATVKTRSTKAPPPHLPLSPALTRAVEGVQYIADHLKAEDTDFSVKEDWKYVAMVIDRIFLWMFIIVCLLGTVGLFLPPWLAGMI
Sequence of Vasopressin V2 receptor (P30518 whole entry): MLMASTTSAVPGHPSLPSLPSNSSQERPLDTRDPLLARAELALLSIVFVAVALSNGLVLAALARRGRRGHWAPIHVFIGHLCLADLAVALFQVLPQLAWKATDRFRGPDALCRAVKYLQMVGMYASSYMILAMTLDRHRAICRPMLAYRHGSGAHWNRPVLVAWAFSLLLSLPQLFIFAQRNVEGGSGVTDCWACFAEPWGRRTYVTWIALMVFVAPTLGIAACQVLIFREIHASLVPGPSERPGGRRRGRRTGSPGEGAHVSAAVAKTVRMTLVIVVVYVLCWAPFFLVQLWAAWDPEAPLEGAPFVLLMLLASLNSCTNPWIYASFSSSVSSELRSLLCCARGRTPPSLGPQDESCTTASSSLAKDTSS

Compound	AC50 [1]	AC50 [2]	AC50 [3]	AC50 [4]	AC50 [5]	AC50 [6]	AC50 [7]	AC50 [8]	AC50 [9]	AC50 [10]	AC50 [11]
C#C[C@]1(O)CC[C@H]2[C@@H]3CCc4cc(OC)ccc4[C@H]3CC[C@@]21C [MESTRANOL]	> 30 µM	> 10 µM	> 30 µM	> 30 µM	> 10 µM	> 10 µM	> 10 µM	> 10 µM	> 30 µM	> 10 µM	> 10 µM
O=C(O)c1cc(O)c2c3nc4ccccc4oc-3cc(=O)c2n1 [PIRENOXINE]	> 30 µM	> 30 µM	> 30 µM	2.2 µM	5.1 µM	> 30 µM	> 30 µM	> 30 µM	2.6 µM	> 30 µM	> 30 µM
NS(=O)(=O)c1cc(C(=O)O)cc(N2CCCC2)c1Oc1ccccc1 [PIRETANIDE]	> 30 µM	> 30 µM	> 30 µM	> 30 µM	> 30 µM	> 30 µM	> 30 µM	> 30 µM	> 30 µM	> 30 µM	> 30 µM
CNCCCC1c2ccccc2C=Cc2ccccc21 [PROTRIPTYLINE]	> 30 µM	> 10 µM	> 10 µM	> 10 µM	> 10 µM			> 10 µM	> 30 µM	> 10 µM	> 10 µM
O=C(CCCN1CCC2(CC1)C(=O)NCN2c1ccccc1)c1ccc(F)cc1 [SPIPERONE]	> 30 µM	> 30 µM	> 30 µM	> 30 µM	> 30 µM		2.8 µM	> 30 µM	> 30 µM	> 30 µM	> 30 µM
CN(C)c1cc(NC(=O)CNC(C)(C)C)c(O)c2c1C[C@H]1C[C@H]3[C@H](N(C)C)C(O)=C(C(N)=O)C(=O)[C@@]3(O)C(O)=C1C2=O [TIGECYCLINE]	> 30 µM	> 30 µM	> 30 µM	> 30 µM	> 30 µM	> 30 µM	> 30 µM	> 30 µM	> 30 µM	> 30 µM	> 30 µM

Continued, values first:

AC50 [1]	AC50 [2]	AC50 [3]	AC50 [4]	AC50 [5]	AC50 [6]	AC50 [7]	AC50 [8]	AC50 [9]	AC50 [10]	AC50 [11]	Compound
> 30 µM	> 30 µM	> 30 µM	18 µM	> 30 µM	1.5 µM	> 30 µM	> 30 µM	> 30 µM	> 30 µM	> 30 µM	COc1cccc(N(C)C(=S)Oc2ccc3c(c2)CCCC3)n1 [LIRANAFTATE]
> 30 µM	> 30 µM	> 30 µM	14 µM	> 30 µM	17 µM	> 30 µM	10 µM	14 µM	> 30 µM	> 30 µM	N=C(N)c1ccc2cc(OC(=O)c3ccc(N=C(N)N)cc3)ccc2c1 [NAFAMOSTAT]
> 30 µM	> 3 µM	> 30 µM	> 30 µM	> 30 µM	12 µM	21 µM	> 30 µM	> 30 µM	> 30 µM	> 30 µM	CC(C)=CCOc1ccc(/C=C/C(=O)c2ccc(OCC=C(C)C)cc2OCC(=O)O)cc1 [SOFALCONE]
